From patent publication US9321751B2, “Piperine derivatives and uses thereof” (INDUSTRY-ACADEMIC COOPERATION FOUNDATION, YONSEI UNIVERSITY, priority 2012, dated 2016)

Assays:
C57BL/6J mice [1] = assay: Body and visceral fat-pad weights of mice fed high-fat test diets (LJ-2529 study); type: in vivo; settings: 14 weeks; for decrease of daily food intake: supplemented high-fat diet
Method: The obesity-inducing control diet used in the test was high-fat diet (HFD: 40% fat calorie, 17 g lard+3% corn oil/100 g diet). Diets supplemented with LJ-2529 compound or piperine had the same composition as HFD, except that LJ-2529 was included at 0.05%.
5-week-old male C57BL/6J mice (Orient, Korea) were accustomed to the laboratory environment for 1 week while feeding solid feed. […] The diet was given between 10 and 11 a.m. every day together with water. Food intake was measured every day and body weight was measured once a week. In order to avoid transient body weight increase after feed intake, body weight was measured 2 hours after removing the feed. After fasting the test animal for at least 12 hours and anesthetizing with diethyl ether, blood, liver and visceral fat (epididymal fat, perirenal fat, mesenteric fat and retroperitoneal fat) were taken and weighed after washing with 0.1M PBS (pH 7.4). Blood taken from the abdominal aorta was centrifuged at 1000×g for 15 minutes for the separation of plasma.

[2] = test system: 3T3-L1 cells as preadipocytes; assay: Inhibition of adipocyte differentiation, Oil-Red O staining; type: cell-based, Mouse; settings: treated every other day from day 0 of differentiation, 14 days culture, different concentrations
Method: Mouse adipocyte line (3T3-L1) was used to evaluate effects of various piperine-based compounds on adipocyte differentiation and growth. 3T3-L1 cells as preadipocytes were dispensed on a 12-well plate, and cultured in a 5% CO2 incubator using DMEM medium supplemented with 1% penicillin-streptomycin, 1% non-essential amino acids, and 10% FBS. The cultured 3T3-L1 cells were made into differentiated adipocytes by being cultured for […] in a medium containing 0.5 mM […], 1 μM dexamethasone (MDI), and 1 μg/mL insulin, and then differentiated into mature adipocytes by being further cultured in a medium 1 μg/mL insulin. After that, they were further cultured for 10 days while changing the DMEM culture liquid every other day to obtain fully differentiated adipocytes.
The culture liquid was treated with 13 new compounds with different concentrations every other day from day 0 when DMI was added to the 3T3-L1 cells for differentiation. Derivative compounds were dissolved in DMSO before the use thereof, and a negative control group added with only DMSO was included in the experiment.
After the culturing for a total of 14 days, the culture liquids were removed when the cells were fully differentiated, and fat spheres contained in the differentiated adipocytes were stained. For this, the cells were washed 2 times with phosphate buffered saline (PBS), immobilized in 10% buffered neutral formalin for 1 hour, washed again once with PBS, stained for 1 hour by adding 1 mL of Oil-Red-O, which specifically stains fats red, to the 12-well plate, and then washed 2 times with distilled water. In order to measure the level of triglyceride contained in the differentiated 3T3-L1 cells, the stained cells were dissolved in 1 mL of iso-butanol and the OD value was measured at 600 nm.

C57BL/6J mice [3] = assay: Body weight and visceral fat weight of mice fed high-fat test diets (LJ-2498 study); type: in vivo; settings: 0.05% in high-fat diet, 10 weeks
Method: The obesity-inducing diet used in this example was high-fat diet (HFD: 40% fat calorie, 17 g lard+3% corn oil/100 g diet). LJ-2498 chemical (JL-2498) or piperine (Pin)-containing diet had the same composition as HFD, except that LJ-2498 chemical was included at 0.05%. As control drugs, metformin (Metf) as a diabetic treatment in a level of 0.1% and sibutramine as an obesity treatment in a level of 0.1% were added to a high-fat diet. A normal diet group (Chow) was fed with commercial rodent feedstuff.
(§1) 5-week-old male C57BL/6J mice (Orient, Korea) were accustomed to the laboratory environment for 1 week while feeding solid feed. Then, they were randomly divided into normal diet group, high-fat diet control group and test group of 3 types and control drug group of 2 types. They were bred for a total of 10 weeks (n=8/group). The diet was given between 10 and 11 a.m. every day together with water. Diet intake was measured every day and body weight was measured every week. In order to avoid transient body weight increase after feed intake, body weight was measured 2 hours after removing the feed. After fasting the test animal for at least 12 hours and anesthetizing with diethyl ether, blood, liver and visceral fat (epididymal fat, perirenal fat, mesenteric fat and retroperitoneal fat) were taken and weighed after washing with 0.1 M PBS (pH 7.4). Blood taken from the abdominal aorta was centrifuged at 1000×g for 15 minutes to separate the serum.

C57BL/6J mice [4] = assay: Biochemical analysis of blood (plasma lipids, ALT, AST) of mice fed test diets; type: in vivo; settings: 0.05% in high-fat diet, 10 weeks
Method: as §1
After 10 weeks of breeding, total cholesterol, triglyceride and glucose levels in the plasma and lipid levels in the liver tissue were measured as follows. Total cholesterol, triglyceride, free fatty acid and glucose levels in the plasma were measured twice for each using a commercially available kit (Bio Clinical System). The activity of ALT (alanine aminotransferase) and AST (aspartate aminotransferase) used as liver function indicator were measured twice for each using a commercially available kit (Bio Clinical System, Korea).

C57BL/6J mice [5] = assay: Oral glucose tolerance test in mice fed test diets; type: in vivo; settings: 8 weeks of diet
Method: After 8 weeks of experimental diet, the oral glucose tolerance test was performed on all groups. After 6 hours of fasting, the mice were orally administered with glucose (2 g glucose/10 ml of distilled water/kg body weight). Before the oral administration of glucose, at 15, 30, 60, and 120 min after the administration of glucose, blood samples were taken from the tail cut (by removing the distal 1 cm of the tail) and blood glucose concentrations were measured using a blood glucose monitoring device.

C57BL/6J mice [6] = assay: Liver weight and lipid level in liver tissues of mice fed test diets; type: in vivo; settings: 0.05% in high-fat diet, 10 weeks
Method: as §1
Lipids were extracted from the liver tissue according to Folch et al.'s method Folch J et al., J Biol. Chem. 226: 497-509 (1957)). After adding 1 mL of distilled water to 0.25 g of liver tissue, the liver tissue was homogenized using a Polytron homogenizer (IKA-Werke GmbH & Co., Ultra-Turrax, Staufen, Germany). After adding 5 mL of chloroform:methanol solution (2:1, v/v) to the homogenate and mixing well, the mixture was centrifuged at 1000×g for 10 minutes. After adding 2 mL of chloroform:methanol solution (2:1, v/v) again to the supernatant, the same procedure was repeated to completely separate the lipid components of the liver. After adding 3 mL of chloroform:methanl:0.05% CaCl2 (3:48:47, v/v/v) solution to the remaining pellets and mixing well for 1 minute, followed by centrifugation at 1000×g for 10 minutes, the resulting pellets were completely dried with nitrogen gas. The dried lipids were dissolved in 1 mL of methanol and then analyzed.
The same kit (Bio Clinical System) as that used for the plasma analysis was used to measure the triglyceride and cholesterol levels of the liver tissue.

SMILES: O=C(/C=C/C=C/c1ccc2c(c1)OCO2)N1CCCCC1 [piperine, Piperine]
- body weight gain change (signed) versus HFD (C57BL/6J mice [1]; piperine-supplemented high-fat diet): −48%
- decrease of daily food intake (C57BL/6J mice [1]): 27%

SMILES: C(=N\c1ccccc1)/c1ccc2c(c1)OCO2 [LJ-2477, (E)-N-(benzo[d][1,3]dioxol-5-ylmethylene)aniline]
- differentiation of the preadipocytes 3T3L1 [2]: reduced the differentiation of the preadipocytes 3T3L1 in a concentration-dependent manner

SMILES: CC(=O)OC/C=C/c1ccc2c(c1)OCO2 [LJ-2196, (E)-3-(benzo[d][1,3]dioxo-5-yl)allyl acetate]
- differentiation of the preadipocytes 3T3L1 [2]: reduced the differentiation of the preadipocytes 3T3L1 in a concentration-dependent manner

SMILES: COc1ccc(OC)c(/C=C/C=C/C(=O)N2CCCCC2)c1 [LJ-2488, (2E,4E)-5-(2,5-dimethoxy-phenyl)-1-(piperidin-1-yl) penta-2,4-dien-1-one]
- differentiation of the preadipocytes 3T3L1 [2]: reduced the differentiation of the preadipocytes 3T3L1 in a concentration-dependent manner

SMILES: Cc1ccc(C)c(/C=C/C=C/C(=O)N2CCCCC2)c1 [LJ-2497, Trans-(2E,4E)-5-(2,5-dimethylphenyl)-1-(piperidin-1-yl) penta-2,4-dien-1-one]
- differentiation of the preadipocytes 3T3L1 [2]: reduced the differentiation of the preadipocytes 3T3L1 in a concentration-dependent manner

SMILES: COc1ccc(/C=C/C=C/C(=O)N2CCCCC2)c(OC)c1 [LJ-2490, (2E,4E)-5-(2,4-dimethoxy-phenyl)-1-(piperidin-1-yl) penta-2,4-dien-1-one]
- differentiation of the preadipocytes 3T3L1 [2]: reduced the differentiation of the preadipocytes 3T3L1 in a concentration-dependent manner

SMILES: COc1cc(/C=C/C=C/C(=O)N2CCCCC2)cc(OC)c1 [LJ-2492, (2E,4E)-5-(3,5-dimethoxy-phenyl)-1-(piperidin-1-yl) penta-2,4-dien-1-one]
- differentiation of the preadipocytes 3T3L1 [2]: reduced the differentiation of the preadipocytes 3T3L1 in a concentration-dependent manner

SMILES: COc1ccc(/C=C/C=C/C(=O)N2CCCCC2)cc1OC [LJ-2491, (2E,4E)-5-(3,4-dimethoxy-phenyl)-1-(piperidin-1-yl) penta-2,4-dien-1-one]
- differentiation of the preadipocytes 3T3L1 [2]: reduced the differentiation of the preadipocytes 3T3L1 in a concentration-dependent manner

SMILES: O=c1[nH]c2ccc(/N=C/c3cc4c(cc3Br)OCO4)cc2[nH]1 [LJ-2527]
- differentiation of the preadipocytes 3T3L1 [2]: reduced the differentiation of the preadipocytes 3T3L1 in a concentration-dependent manner

SMILES: S=c1[nH]c2ccc(/N=C/c3c(Br)ccc4c3OCO4)cc2[nH]1 [SKKU-S-02]
- differentiation of the preadipocytes 3T3L1 [2]: reduced the differentiation of the preadipocytes 3T3L1 in a concentration-dependent manner

SMILES: Cc1ccc(C)c(/C=C/C=C\C(=O)N2CCCCC2)c1 [LJ-2498, Cis-(2E,4E)-5-(2,5-dimethyl-phenyl)-1-(piperidin-1-yl) penta-2,4-dien-1-one]
- differentiation of the preadipocytes 3T3L1 [2]: reduced the differentiation of the preadipocytes 3T3L1 in a concentration-dependent manner
- epididymal fat weight per body weight as compared to HFD (C57BL/6J mice [3]): significantly lower
- lower accumulated body weight gain as compared to HFD (C57BL/6J mice [3]): 23%
- lower total visceral fat weight compared to HFD (C57BL/6J mice [3]): 28%
- mesenteric fat weight per body weight as compared to HFD (C57BL/6J mice [3]): significantly lower
- perirenal fat weight per body weight as compared to HFD (C57BL/6J mice [3]): significantly lower
- retroperitoneal fat weight per body weight as compared to HFD (C57BL/6J mice [3]): significantly lower
- visceral fat weight as compared to HFD group (C57BL/6J mice [3]): significantly lower
- decreased plasma activity of ALT as compared to HFD (C57BL/6J mice [4]): 27%
- decreased plasma activity of AST as compared to HFD (C57BL/6J mice [4]): 15%
- lower plasma level of free fatty acid as compared to HFD (C57BL/6J mice [4]): 25%
- lower plasma level of total cholesterol as compared to HFD (C57BL/6J mice [4]): 20%
- lower plasma level of triglyceride as compared to HFD (C57BL/6J mice [4]): 21%
- insulin resistance improving effect versus control drugs metformin and sibutramine (C57BL/6J mice [5]): more excellent than those of control drugs
- blood glucose concentration after oral glucose as compared with HFD (C57BL/6J mice [5]; 2 g glucose/kg, 15, 30, 60, 120 min): further reduced over all the time zones
- reduction of fasting blood glucose as compared with HFD (C57BL/6J mice [5]; 6 hours fasting): 20%
- decrease of liver weight compared to HFD (C57BL/6J mice [6]): 23%
- decreased level of cholesterol in liver tissue as compared to HFD (C57BL/6J mice [6]): 41%
- decreased level of triglyceride in liver tissue as compared to HFD (C57BL/6J mice [6]): 29%
- liver tissue appearance as compared to HFD (C57BL/6J mice [6]; images): darker and smaller liver tissue

SMILES: O=c1[nH]c2ccc(/N=C/c3c(Br)ccc4c3OCO4)cc2[nH]1 [LJ-2529]
- differentiation of the preadipocytes 3T3L1 [2]: reduced the differentiation of the preadipocytes 3T3L1 in a concentration-dependent manner
- decrease of FER (feed efficiency ratio) compared with HFD (C57BL/6J mice [1]; 0.05% in high-fat diet): 60%
- decrease of body weight gain as compared to HFD (C57BL/6J mice [1]; 0.05% in high-fat diet): 60%
- epididymal fat-pad weight as compared to HFD (C57BL/6J mice [1]; 0.05% in high-fat diet): significantly reduced
- mesenteric fat-pad weight as compared to HFD (C57BL/6J mice [1]; 0.05% in high-fat diet): significantly reduced
- perirenal fat-pad weight as compared to HFD (C57BL/6J mice [1]; 0.05% in high-fat diet): significantly reduced
- retroperitoneal fat-pad weight as compared to HFD (C57BL/6J mice [1]; 0.05% in high-fat diet): significantly reduced
- reduction of total visceral fat weight versus HFD (C57BL/6J mice [1]; 0.05% in high-fat diet, P<0.001): 15%
- decrease of daily food intake (C57BL/6J mice [1]): 24%

SMILES: COc1cccc(/C=C/C=C/C(=O)N2CCCCC2)c1OC [LJ-2489, (2E,4E)-5-(2,3-dimethoxy-phenyl)-1-(piperidin-1-yl) penta-2,4-dien-1-one]
- differentiation of the preadipocytes 3T3L1 [2]: reduced the differentiation of the preadipocytes 3T3L1 in a concentration-dependent manner
- reduction of area under the curve (ACU) for blood glucose concentrations as compared with HFD (C57BL/6J mice [5]; 2 g glucose/kg oral): 17%

SMILES: O=C(/C=C/C=C/c1ccc2c(c1)OCO2)N1CCCC1 [LJ-2487, (2E,4E)-5-(benzo[d][1,3]dioxol-5-yl)-1-(pyrrolidin-1-yl)penta-2,4-dien-1-one]
- differentiation of the preadipocytes 3T3L1 [2]: reduced the differentiation of the preadipocytes 3T3L1 in a concentration-dependent manner
